Results reported in publication PMC10447267, “Assessment of the potential of the MET inhibitor tepotinib to affect the pharmacokinetics of CYP3A4 and P-gp substrates” (Investigational New Drugs, 2023).
Read-outs that look alike come from different tables or passages of the source.

Tests used:
CYP2E1 = target: T1, CYP2E1 (Homo sapiens, UniProt P05181); test: biochemical; format: in vitro ADME; details: for inhibition at 49.5 µM: both sexes, human, microsomes
T1 construct: pooled mixed-gender human liver microsomes; from tissue; host or cells: pooled mixed-gender human liver microsomes
Method: (§1) The potential of tepotinib and MSC2571109A to inhibit CYP450 enzymes CYP1A2, 2A6, 2B6, 2C8, 2C9, 2C19, 2D6, 2E1, and 3A4/5 in vitro was evaluated using CYP-catalyzed reactions in pooled mixed-gender human liver microsomes using specific substrates and liquid chromatography/tandem mass spectrometry (LC–MS/MS) readouts. […] Testosterone 6β-hydroxylation was assessed in the MSC2571109A study. Assessments of mechanism-based inhibition of the above listed CYP450 enzymes were conducted after pre-incubation of the microsomes with tepotinib or MSC2571109A. A brief summary of the incubation methods, including details of substrates used for the other CYP enzymes (which are not pertinent to this article) are presented in Online Resource 1. The LC–MS/MS-based methods used were consistent with those previously described in the literature.

CYP2D6 = target: T2, CYP2D6 (Homo sapiens, UniProt P10635); test: biochemical; format: in vitro ADME; details: for inhibition at 49.5 µM: both sexes, human, microsomes
T2 construct: pooled mixed-gender human liver microsomes; from tissue; host or cells: pooled mixed-gender human liver microsomes
Method: as §1

P-gp = P-gp (Homo sapiens, UniProt P08183); test: Study 2 (NCT03492437): effect of tepotinib on dabigatran pharmacokinetics in healthy participants; format: in vivo; details: clinical; tepotinib 500 mg QD
Method: Study 1 (NCT03628339) and Study 2 (NCT03492437) were both Phase 1, open-label, single sequence, 2-period studies in 12 and 20 healthy participants, respectively (Fig. 1).
In Period 2 (Days 4 to 14), participants received 500 mg tepotinib QD on Days 4 to 11. […] Blood samples for trough concentrations of tepotinib were collected on Days 9 and 10. Further blood samples for tepotinib and its metabolites were also collected up to 24 h postdose on Day 10.
Parameters included maximum plasma concentration (Cmax) and time to reach Cmax (Tmax) taken directly from the observed data. Area under the plasma concentration–time curve (AUC) from time 0 to the last measured concentration (AUC0-t), AUC over the dose interval (AUCtau) and AUC extrapolated to infinity (AUC0-∞) were calculated using the mixed log/linear trapezoidal rule. Terminal elimination half-life (t1/2) was calculated as ln(2)/λz where λz is the terminal rate constant. The primary pharmacokinetic parameters in both studies were Cmax, AUC0-t and AUC0-∞.
A similar statistical approach was taken for both studies. […] Point estimates and CIs were back-transformed to the original scale.

CYP1A2 = target: T3, CYP1A2 (Homo sapiens, UniProt P05177); test: CYP1A2 inhibition in pooled human liver microsomes; format: in vitro ADME; details: for inhibition at 49.5 µM: both sexes, human, microsomes
T3 construct: pooled mixed-gender human liver microsomes; from tissue; host or cells: pooled mixed-gender human liver microsomes
T3 sequence (P05177 1-516): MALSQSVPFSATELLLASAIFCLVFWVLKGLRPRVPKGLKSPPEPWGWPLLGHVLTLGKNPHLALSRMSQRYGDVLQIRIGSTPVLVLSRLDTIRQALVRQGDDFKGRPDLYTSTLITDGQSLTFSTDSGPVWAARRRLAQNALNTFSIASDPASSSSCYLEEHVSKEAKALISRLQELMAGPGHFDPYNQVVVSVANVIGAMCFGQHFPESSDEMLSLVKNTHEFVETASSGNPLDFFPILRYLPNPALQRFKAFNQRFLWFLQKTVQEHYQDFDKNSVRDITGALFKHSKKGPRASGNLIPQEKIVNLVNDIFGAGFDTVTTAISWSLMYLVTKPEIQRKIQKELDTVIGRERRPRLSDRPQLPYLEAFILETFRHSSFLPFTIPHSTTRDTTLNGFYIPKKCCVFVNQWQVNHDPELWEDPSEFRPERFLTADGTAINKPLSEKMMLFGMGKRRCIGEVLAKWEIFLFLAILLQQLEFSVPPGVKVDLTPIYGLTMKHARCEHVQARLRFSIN
Method: as §1

CYP3A4/5 = CYP3A4/5 inhibition in pooled human liver microsomes; format: in vitro ADME; details: for inhibition at 49.5 µM / IC50: human, microsomes
Method: as §1, with “Testosterone 6β-hydroxylation was assessed in the MSC2571109A study.” left out

CYP2B6 = target: T4, CYP2B6 (Homo sapiens, UniProt P20813); test: CYP2B6 inhibition in pooled human liver microsomes; format: in vitro ADME; details: Efavirenz 8-hydroxylation; for inhibition at 49.5 µM: both sexes, human, pooled human liver microsomes, probe efavirenz
T4 construct: pooled mixed-gender human liver microsomes; from tissue; host or cells: pooled mixed-gender human liver microsomes
T4 sequence (P20813 1-491): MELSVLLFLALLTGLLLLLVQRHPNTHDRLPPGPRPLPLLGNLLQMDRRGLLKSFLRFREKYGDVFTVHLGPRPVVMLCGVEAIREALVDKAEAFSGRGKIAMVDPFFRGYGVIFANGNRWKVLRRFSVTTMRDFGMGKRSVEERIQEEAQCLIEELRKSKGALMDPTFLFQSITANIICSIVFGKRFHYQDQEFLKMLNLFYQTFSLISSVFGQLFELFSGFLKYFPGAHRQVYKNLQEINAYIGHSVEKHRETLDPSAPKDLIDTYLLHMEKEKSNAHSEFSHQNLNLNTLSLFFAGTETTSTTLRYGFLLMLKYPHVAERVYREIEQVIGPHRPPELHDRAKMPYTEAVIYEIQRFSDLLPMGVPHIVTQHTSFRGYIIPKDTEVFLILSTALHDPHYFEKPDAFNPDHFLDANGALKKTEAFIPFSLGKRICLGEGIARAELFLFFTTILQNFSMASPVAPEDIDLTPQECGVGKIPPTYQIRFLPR
Method: as §1

T2 sequence (P10635 whole entry): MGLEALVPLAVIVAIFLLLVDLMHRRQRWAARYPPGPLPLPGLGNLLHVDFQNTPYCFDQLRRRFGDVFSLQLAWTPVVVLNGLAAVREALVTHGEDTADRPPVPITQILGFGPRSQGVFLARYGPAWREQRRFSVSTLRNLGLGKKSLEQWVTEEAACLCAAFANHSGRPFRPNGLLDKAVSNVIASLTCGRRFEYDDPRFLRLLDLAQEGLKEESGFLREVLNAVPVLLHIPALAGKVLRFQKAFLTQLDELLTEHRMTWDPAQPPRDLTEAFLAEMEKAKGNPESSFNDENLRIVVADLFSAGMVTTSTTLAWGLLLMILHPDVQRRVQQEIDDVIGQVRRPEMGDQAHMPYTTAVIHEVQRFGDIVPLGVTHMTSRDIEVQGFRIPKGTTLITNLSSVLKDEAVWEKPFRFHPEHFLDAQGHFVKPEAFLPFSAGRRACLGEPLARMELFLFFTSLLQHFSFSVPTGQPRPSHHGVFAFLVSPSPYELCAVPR
T1 sequence (P05181 whole entry): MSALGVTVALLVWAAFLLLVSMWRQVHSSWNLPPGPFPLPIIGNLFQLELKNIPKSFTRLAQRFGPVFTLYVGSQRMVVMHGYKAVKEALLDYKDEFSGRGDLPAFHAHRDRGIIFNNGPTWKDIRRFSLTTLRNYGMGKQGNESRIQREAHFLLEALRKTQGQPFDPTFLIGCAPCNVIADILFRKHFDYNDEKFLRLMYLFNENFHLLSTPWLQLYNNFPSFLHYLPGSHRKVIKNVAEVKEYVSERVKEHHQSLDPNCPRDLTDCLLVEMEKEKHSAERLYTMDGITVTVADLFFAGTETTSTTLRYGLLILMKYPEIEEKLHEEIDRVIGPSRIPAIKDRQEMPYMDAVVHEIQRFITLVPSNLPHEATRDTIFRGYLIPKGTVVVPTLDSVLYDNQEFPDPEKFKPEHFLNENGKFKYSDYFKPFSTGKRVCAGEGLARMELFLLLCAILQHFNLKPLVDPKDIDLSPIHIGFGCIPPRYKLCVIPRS
P-gp, sequence (P08183 whole entry): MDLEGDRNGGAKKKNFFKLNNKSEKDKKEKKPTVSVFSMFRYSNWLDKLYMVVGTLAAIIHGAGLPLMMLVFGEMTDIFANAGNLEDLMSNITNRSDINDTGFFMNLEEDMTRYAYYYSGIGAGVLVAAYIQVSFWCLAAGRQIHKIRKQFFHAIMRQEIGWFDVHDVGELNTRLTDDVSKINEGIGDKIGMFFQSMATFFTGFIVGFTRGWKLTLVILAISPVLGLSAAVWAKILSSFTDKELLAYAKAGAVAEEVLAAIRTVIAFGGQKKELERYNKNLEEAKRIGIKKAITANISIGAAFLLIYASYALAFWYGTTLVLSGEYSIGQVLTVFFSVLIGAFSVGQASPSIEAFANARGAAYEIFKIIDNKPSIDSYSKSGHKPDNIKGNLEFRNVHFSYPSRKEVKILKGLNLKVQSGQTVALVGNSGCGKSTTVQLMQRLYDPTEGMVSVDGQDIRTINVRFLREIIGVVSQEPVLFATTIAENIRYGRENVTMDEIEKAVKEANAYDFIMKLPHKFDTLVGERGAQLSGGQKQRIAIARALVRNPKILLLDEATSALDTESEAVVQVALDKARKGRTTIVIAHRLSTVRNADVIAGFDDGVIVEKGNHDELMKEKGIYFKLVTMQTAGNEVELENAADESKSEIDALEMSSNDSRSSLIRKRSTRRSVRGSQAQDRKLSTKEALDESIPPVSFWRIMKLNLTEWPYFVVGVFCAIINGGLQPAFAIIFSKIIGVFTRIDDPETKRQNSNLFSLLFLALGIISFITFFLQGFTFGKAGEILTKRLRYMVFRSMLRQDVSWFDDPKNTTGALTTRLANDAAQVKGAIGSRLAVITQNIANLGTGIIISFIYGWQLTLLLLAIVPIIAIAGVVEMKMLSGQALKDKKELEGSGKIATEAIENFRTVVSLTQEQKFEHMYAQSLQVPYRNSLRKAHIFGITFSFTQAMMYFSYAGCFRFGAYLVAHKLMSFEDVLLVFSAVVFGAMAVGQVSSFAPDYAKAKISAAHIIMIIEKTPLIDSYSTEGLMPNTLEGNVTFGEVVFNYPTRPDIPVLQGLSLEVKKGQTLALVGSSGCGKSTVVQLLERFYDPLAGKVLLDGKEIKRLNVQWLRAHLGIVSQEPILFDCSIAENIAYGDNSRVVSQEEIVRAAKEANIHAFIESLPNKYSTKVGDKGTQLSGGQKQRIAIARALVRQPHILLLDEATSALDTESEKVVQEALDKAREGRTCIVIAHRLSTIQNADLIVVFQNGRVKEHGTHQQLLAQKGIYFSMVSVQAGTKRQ

**Q.** What does the source list for CN1CCC(COc2cnc(-c3cccc(Cn4nc(-c5cccc(C#N)c5)ccc4=O)c3)nc2)CC1 [tepotinib]?
**A.** IC50 (CYP2E1): > 49.5 µM; Potential for time-dependent inhibition (CYP2E1; Chlorzoxazone 6-hydroxylation): Little or No; inhibition at 49.5 µM (CYP2E1; Chlorzoxazone 6-hydroxylation, 30-min preincubation, read-out: Time-dependent inhibition, maximum inhibition at 49.5 µM): 17%; inhibition at 49.5 µM (CYP2E1; Chlorzoxazone 6-hydroxylation, zero-minute preincubation, read-out: Direct inhibition, maximum inhibition at 49.5 µM): 19%; IC50 (CYP2E1; read-out: Time-dependent inhibition IC50, Chlorzoxazone 6-hydroxylation, 30-min preincubation): > 49.5 µM; IC50 (CYP2D6): > 49.5 µM; Potential for time-dependent inhibition (CYP2D6; Dextromethorphan O-demethylation): Little or No; inhibition at 49.5 µM (CYP2D6; Dextromethorphan O-demethylation, 30-min preincubation, read-out: Time-dependent inhibition, maximum inhibition at 49.5 µM): 24%; inhibition at 49.5 µM (CYP2D6; Dextromethorphan O-demethylation, zero-minute preincubation, read-out: Direct inhibition, maximum inhibition at 49.5 µM): 50%; IC50 (CYP2D6; read-out: Time-dependent inhibition IC50, Dextromethorphan O-demethylation, 30-min preincubation): > 49.5 µM; Inhibition of P-gp-mediated efflux transport of dabigatran etexilate (in words) (P-gp): weak inhibitor; IC50 (CYP1A2): > 49.5 µM; Potential for time-dependent inhibition (CYP1A2; Phenacetin O-dealkylation): Little or No; inhibition at 49.5 µM (CYP1A2; Phenacetin O-dealkylation, 30-min preincubation, read-out: Time-dependent inhibition, maximum inhibition at 49.5 µM): 26%; inhibition at 49.5 µM (CYP1A2; Phenacetin O-dealkylation, zero-minute preincubation, read-out: Direct inhibition, maximum inhibition at 49.5 µM): 11%; IC50 (CYP1A2; read-out: Time-dependent inhibition IC50, Phenacetin O-dealkylation, 30-min preincubation): > 49.5 µM; Potential for time-dependent inhibition (CYP3A4/5; Midazolam 6β-hydroxylation): Little or No; Potential for time-dependent inhibition (CYP3A4/5; Nifedipine oxidation): Little or No; Potential for time-dependent inhibition (CYP3A4/5; Testosterone 1’-hydroxylation): Little or No; inhibition at 49.5 µM (CYP3A4/5; both sexes, Midazolam 6β-hydroxylation, 30-min preincubation, read-out: Time-dependent inhibition, maximum inhibition at 49.5 µM): 60%; IC50 (CYP3A4/5; both sexes, Midazolam 6β-hydroxylation, 30-min preincubation, read-out: Time-dependent inhibition IC50): 33 µM; inhibition at 49.5 µM (CYP3A4/5; both sexes, Midazolam 6β-hydroxylation, zero-minute preincubation, read-out: Direct inhibition, maximum inhibition at 49.5 µM): 66%; inhibition at 49.5 µM (CYP3A4/5; both sexes, Nifedipine oxidation, 30-min preincubation, read-out: Time-dependent inhibition, maximum inhibition at 49.5 µM): 71%; IC50 (CYP3A4/5; both sexes, Nifedipine oxidation, 30-min preincubation, read-out: Time-dependent inhibition IC50): 25 µM; inhibition at 49.5 µM (CYP3A4/5; both sexes, Nifedipine oxidation, zero-minute preincubation, read-out: Direct inhibition, maximum inhibition at 49.5 µM): 64%; inhibition at 49.5 µM (CYP3A4/5; both sexes, Testosterone 1’-hydroxylation, 30-min preincubation, read-out: Time-dependent inhibition, maximum inhibition at 49.5 µM): 59%; IC50 (CYP3A4/5; both sexes, Testosterone 1’-hydroxylation, 30-min preincubation, read-out: Time-dependent inhibition IC50): 37 µM; inhibition at 49.5 µM (CYP3A4/5; both sexes, Testosterone 1’-hydroxylation, zero-minute preincubation, read-out: Direct inhibition, maximum inhibition at 49.5 µM): 62%; IC50 (CYP3A4/5; both sexes, human liver microsomes, Midazolam 6β-hydroxylation, zero-minute preincubation, read-out: Direct inhibition IC50): 25 µM; IC50 (CYP3A4/5; both sexes, human liver microsomes, Nifedipine oxidation, zero-minute preincubation, read-out: Direct inhibition IC50): 26 µM; IC50 (CYP3A4/5; both sexes, human liver microsomes, Testosterone 1’-hydroxylation, zero-minute preincubation, read-out: Direct inhibition IC50): 31 µM; IC50 (CYP3A4/5; both sexes, in vitro, abstract summary, read-out: IC50, direct or time-dependent CYP3A4/5 inhibition): > 15 µM; Ki (CYP3A4/5; both sexes, human liver microsomes, read-out: Ki, CYP3A4/5-catalyzed probe substrate reactions): ≥ 11 µM; Direct inhibition of CYP3A4/5 (in words) (CYP3A4/5; in vitro): weak direct inhibitors; Potential for time-dependent inhibition (CYP2B6): Little or No; IC50 (CYP2B6; 30-min preincubation, read-out: Time-dependent inhibition IC50): 44 µM; inhibition at 49.5 µM (CYP2B6; 30-min preincubation, read-out: Time-dependent inhibition, maximum inhibition at 49.5 µM): 52%; inhibition at 49.5 µM (CYP2B6; zero-minute preincubation, read-out: Direct inhibition, maximum inhibition at 49.5 µM): 34%; IC50 (CYP2B6; human liver microsomes, zero-minute preincubation, read-out: Direct inhibition IC50): > 49.5 µM
